Here are results for three compounds from patent publication US20250241878A1, “TYROSINE AND RESVERATROL DERIVATIVES AS NOVEL MODULATORS OF CELLULAR SERINE ADP-RIBOSYLATION” (UNIVERSITY OF SOUTH CAROLINA, priority 2022, published 2025).

Series [1] relates to cortical neurons. Put plainly: DNA fiber analysis (CIdU incorporation). The series is classed as cell-based, rat. How it is done: Molecular combing was performed using the FiberComb® Molecular Combing System (Genomic Vision) with a constant stretching factor of 2 kb/μm using […] coverslips (20×20 mm; Genomic Vision). […] The coverslips were then washed with PBS, followed by serial ethanol dehydration (70%-100%). Following two 1×PBS washes, the coverslips were blocked in 3% BSA/1×PBS for 30 min followed by incubation with α-BrdU (for CIdU) (BD [347,580]) (1:100) and ssDNA antibody (MilliporeTM MAB3034) (1:100), for 2 hr at 37° C. After three PBST washes, secondary antibody incubation was done using α-mouse Alexa Fluor® 594 and α-rat Alexa Fluor® 488 (1:500) for 1 hr at 37° C. Coverslips were washed three times with 1×PBST, dehydrated and mounted on slides with mounting media. The stained DNA fibers were visualized using a fluorescence microscope (EVOS FL, Thermo FisherTM Scientific). Analysis was performed in ImageJ by counting the total ssDNA and the CIdU labeled fibers. For each treatment condition, 300 fibers were counted, and the average ratio of CIdU incorporation for ssDNA fibers per condition was used for final representation.

Series [2] deals with monosomes. Put plainly: Monosome formation in cortical neurons. The series is classed as cell-based, rat. As to conditions: compound alone.
The subject of series [3] is association of raptor with Rab7a. The series is described as follows: Raptor / Rab7a immunoprecipitation. The series is classed as cell-based, rat. The text has this: FIG. 19C presents cis-RSV-mediated recruitment of raptor to Rab7a-coated late endosomes.
Series [4] relates to rat cortical neurons. The series is described as follows: MTT cell viability assay. Also noted: effect on neurotoxicity induced by etoposide (ETO) / effect on neurotoxicity induced by oxidative stress (H2O2) / effect on neurotoxicity induced by mitochondrial inhibition (MPP+) / neurotoxicity (viability): dose or concentration left out as unconfirmed. As to conditions: for effect on D-Tyr mediated neurotoxicity: combination with D-Tyr.
Method: Rat cortical neurons (DIV9-11) were exposed to different treatments (NMDA, ETO, H2O2, MPP+) after seeding 20,000 cells/well in 96-well plates. Cell viability was then assessed at 48 hr after the initial exposure to NMDA. 3-[4,5-dimethylthiazole-2-yl]-2,5-diphenyltetrazolium bromide (MTT) assays were used to assess change in cell viability. […] Cultured rat cortical neurons were incubated with MTT (0.5 mg/mL). In the MTT assay, after 2 hr incubation, the insoluble purple product formazan resulting from the reduction of MTT by NAD (P) H-dependent oxidoreductases present in cells with viable mitochondria was solubilized in dimethyl sulfoxide at room temperature, under agitation, and protected from light. The percentage of MTT reduced as measured by the difference between the absorbances at 570 nm read in a spectrophotometer (SpectraMax® 190R Molecular Devices, UK).

The test system of series [5] is global protein synthesis. The series is described as follows: Puromycin incorporation assay. In kind it is cell-based, rat. As to conditions: compound alone. The procedure: (§1) Cultured neurons (DIV 9-10) were washed once with cold 1×PBS and lysed in cell lysis buffer (20 mM Tris-HCl (pH 7.5), 150 mM NaCl, 1 mM Na2EDTA, 1 mM EGTA, 1% Triton™, 2.5 mM sodium pyrophosphate, 1 mM beta-glycerophosphate, 1 mM Na3VO4, 1 μg/ml leupeptin supplemented with protease inhibitor). The lysates were centrifuged at 10,000 RPM for 15 mins at 4° C. to separate the chromatin-bound and soluble fractions. Lysates were quantified using Bio-Rad™ Protein Assay and equal amounts of protein were loaded onto a 4 to 12% gradient gel (Invitrogen™ NuPAGE™). Protein was transferred from the gel to 0.2 μm NC membranes at 25 V for 10 mins using transfer stacks (iBlot™ 2-Invitrogen™) and blocked with 5% non-fat milk in TBST (10 mM Tris-HCl pH 8.0, 150 mM NaCl, 0.01% Tween-20) for 1 hr before application of primary antibodies. Primary and secondary antibodies were incubated overnight at 4° C. and for 1 hr at room temperature, respectively. Immobilon® ECL Ultra Western HRP Substrate (WBULS0500, Millipore™) and a luminescent image analyzer (ChemiDoc™ Imaging System, Bio-Rad™) were used to detect proteins. Quantification of western blots was done using ImageJ (Version 1.53c).

For series [6], the system named is HPF1. The series is described as follows: HPF1 levels immunoblot in cortical neurons. In kind it is cell-based, rat. To be noted: compound alone. How it is done:
FIG. 5A presents immunoblots showing the protein levels of HPF1 in rat cortical neurons (DIV9-10) after treatment with Tyr ([…]) for up to 8 hr.
as §1

For series [7], the system named is PARP1. Put plainly: Auto-PARylation of PARP1 immunoblot. The series is classed as cell-based, rat.
Series [8] has as its system AcK56-H3. To be noted: humans, 500 mg/day dosing; cited from earlier work.
For series [9], the system named is cortical neurons. Put plainly: Neurite degeneration (MAP2 staining). In kind it is cell-based, rat. To be noted: agent alone. The procedure:
The neurite degeneration index was calculated. Samples were imaged using ImageXpress® Micro 4 at a magnification of 10× to capture the entire field of interest. The samples analyzed for neurite degeneration were stained using the standard immunofluorescence procedure with MAP2 (Alexa Fluor® 647) for neurites and DAPI staining for the nucleus. Neurite degeneration was quantified using 5-6 regions of interest of equal sizes from each treatment condition. The analysis of neurite degeneration was done using ImageJ. The fluorescent images for MAP2 staining were binarized, so that pixel intensity of regions corresponding to neurite staining was converted to black, and all other regions were converted to white. Healthy intact neurites show a continuous tract, whereas degenerated axons have a particulate structure due to fragmentation or beading. To detect degenerated neurites, the particle analyzer module of ImageJ was used. The percentage of the area of the small fragments or particles (size=3-10 μm^2) to the intact neurites (size >25 μm^2) with information derived from the binary images was calculated. A degeneration index (DI) was calculated as the fragmented neurite area ratio over the intact neurite area.

The mark [10] stands for this setting: higher concentrations of trans-RSV (≥25 mM).

Turning to `Oc1ccc(/C=C\c2cc(O)cc(O)c2)cc1` [cis-RSV, cis-resveratrol], in series [1] (after cis-RSV treatment), the “reduction of CIdU incorporation compared to control” value is given as 15-20%. The monosome formation entry in [2] is recorded as “stimulate the formation of monosomes”. Moreover, the “association of raptor with Rab7a” value in series [3] was “increases the association of raptor with Rab7a”. In series [4], the “effect on neurotoxicity induced by etoposide (ETO)” value is on record as “suppressed the neurotoxicity”, the “effect on neurotoxicity induced by mitochondrial inhibition (MPP+)” value was “suppressed the neurotoxicity”, the “effect on neurotoxicity induced by oxidative stress (H2O2)” value is “suppressed the neurotoxicity” and the “effect on D-Tyr mediated neurotoxicity” value was “protected against D-Tyr mediated neurotoxicity”. Also, the “effect on NMDA-mediated toxicity” value in series [4] (cis-RSV) is “protected against NMDA-mediated toxicity in a concentration-dependent manner”. Further, the “effect on trans-RSV-mediated neurotoxicity” value in [4] (combination with trans-RSV) is on record as “protected against the neurotoxicity induced by trans-RSV in a dose-dependent manner”.

Turning to `Oc1ccc(/C=C/c2cc(O)cc(O)c2)cc1` [trans-RSV, trans-resveratrol], the “global protein synthesis (puromycin incorporation)” value in series [5] is “inhibited global protein synthesis”. For the same compound, the HPF1 levels entry in series [6] is given as “decreased HPF1 levels”. The “auto-PARylation of PARP1” value in [7] (setting [10]) is given as “inhibit the auto-PARylation of PARP1”. Besides, in series [7] (low concentration of trans-RSV, converted to cis-RSV in solution), the “auto-PARylation of PARP1” value is given as “stimulates the auto-PARylation of PARP1”. For the same compound, the “incorporation of nucleoside analog CIdU into DNA fibers” value in series [1] (compound alone) was “prevented the incorporation of the nucleoside analog CIdU into DNA fibers”. Moreover, the “acetylation of H3 at lysine 56 (AcK56-H3)” value in series [8] is given as “inhibited the acetylation of H3 at lysine 56”. Besides, in series [4], the “effect on neurotoxicity induced by etoposide (ETO)” value is listed as “did not protect against these neurotoxic agents”, the “effect on neurotoxicity induced by mitochondrial inhibition (MPP+)” value is recorded as “did not protect against these neurotoxic agents”, the “effect on neurotoxicity induced by oxidative stress (H2O2)” value is recorded as “did not protect against these neurotoxic agents” and the “neurotoxicity (viability)” value is given as “by itself was neurotoxic”. Moreover, in series [4], the “effect on D-Tyr mediated neurotoxicity” value is “protected against D-Tyr mediated neurotoxicity but not trans-RSV”. In addition, in [4] (setting [10]), the “effect on NMDA mediated neurotoxicity” value is on record as “exacerbated the toxicity”. Moreover, the “effect on NMDA mediated neurotoxicity” value in [4] (low concentrations of trans-RSV (≤10 mM)) is listed as “evoked protective effects”.

Regarding `N[C@@H](Cc1ccc(O)cc1)C(=O)O` [tyrosine, L-tyrosine], the HPF1 levels entry in [6] is “decreased HPF1 levels”. In addition, the neurite degeneration result in [9] is recorded as “did not induce neurite degeneration”.
